Experimental findings from patent publication US20230219965A1 (KSQ Therapeutics, Inc., priority 2020, published 2023) are described below.

Where two headings read alike, the source gives them in different places. A value given as a limit tells only on which side of the number the result lay.

Data set [1] can be described thus: ADME solubility determination in PBS at pH 2.0 and pH 7.4. It is filed as physicochemical. To be noted: for solubility at 24 h: phosphate buffered saline, 25 °C, thermodynamic from solid. The essentials: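 Dried 10 mM DMSO stock residues taken up in PBS pH 7.4 or pH 2.0, shaken 24 h at 25° C. After centrifugation, supernatant quantified by LC-MS/MS against a standard of known concentration, with a dilution factor applied.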

The nature of data set [2]: Liver microsomal metabolic stability, rat liver microsomes (RLM). To be noted: 1 μM compound, 1 mg/mL microsomes, NADPH; for half-life at 1 μM: rat, liver microsomes, t1/2 (min) in RLM.
The next data set deals with USP1/UAF1 enzyme (Homo sapiens, UniProt O94782). The data set can be described thus: USP1/UAF1 deubiquitination assay (ubiquitin-rhodamine 110 substrate). It is filed as biochemical. To be noted: read-out: USP1 IC50 (Ub-Rho). In outline: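 0.05 nM USP1/UAF1 was preincubated 10 min with compounds (dose response from 10 μM) in 50 mM Tris-HCl pH 7.8, 0.5 mM EDTA, 0.01% BSA, 1 mM DTT, 0.01% Tween-20. 150 nM ubiquitin-rhodamine 110 started the reaction, read kinetically 30 min at Ex480/Em540; IC50 by four-parameter fit versus no-enzyme and DMSO controls.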

In data set [3] the test system is Ub-PCNA levels in the nucleus of ES2 cells (USP1 activity). The data set can be described thus: ES2 Ub-PCNA immunofluorescence (IF) assay. The format is cell-based. To be noted: ES2 cells, 3 hours, Ub-PCNA immunofluorescence, read-out: USP1 IC50 (Ub-PCNA). In outline:
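Cells plated overnight, then compound-treated for 3 h at 37° C (0.3% DMSO final), methanol-fixed and stained with anti-Ub-PCNA plus DAPI. Per-nucleus Ub-PCNA intensity imaged; cells above the 95% cutoff of untreated wells counted as positive, and percent positive cells used to derive AC50.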

A short description of data set [4]: Liver microsomal metabolic stability, human liver microsomes (HLM). To be noted: for half-life at 1 μM: human, liver microsomes.
[5] abbreviates: pH 2, aqueous buffer, PBS pH 2.0, 25° C., read-out: Solubility at pH 2.0.
Setting [6] is: pH 7.4, aqueous buffer, PBS pH 7.4, 25° C., read-out: Solubility at pH 7.4.

Sequence of USP1/UAF1 enzyme (O94782 whole entry): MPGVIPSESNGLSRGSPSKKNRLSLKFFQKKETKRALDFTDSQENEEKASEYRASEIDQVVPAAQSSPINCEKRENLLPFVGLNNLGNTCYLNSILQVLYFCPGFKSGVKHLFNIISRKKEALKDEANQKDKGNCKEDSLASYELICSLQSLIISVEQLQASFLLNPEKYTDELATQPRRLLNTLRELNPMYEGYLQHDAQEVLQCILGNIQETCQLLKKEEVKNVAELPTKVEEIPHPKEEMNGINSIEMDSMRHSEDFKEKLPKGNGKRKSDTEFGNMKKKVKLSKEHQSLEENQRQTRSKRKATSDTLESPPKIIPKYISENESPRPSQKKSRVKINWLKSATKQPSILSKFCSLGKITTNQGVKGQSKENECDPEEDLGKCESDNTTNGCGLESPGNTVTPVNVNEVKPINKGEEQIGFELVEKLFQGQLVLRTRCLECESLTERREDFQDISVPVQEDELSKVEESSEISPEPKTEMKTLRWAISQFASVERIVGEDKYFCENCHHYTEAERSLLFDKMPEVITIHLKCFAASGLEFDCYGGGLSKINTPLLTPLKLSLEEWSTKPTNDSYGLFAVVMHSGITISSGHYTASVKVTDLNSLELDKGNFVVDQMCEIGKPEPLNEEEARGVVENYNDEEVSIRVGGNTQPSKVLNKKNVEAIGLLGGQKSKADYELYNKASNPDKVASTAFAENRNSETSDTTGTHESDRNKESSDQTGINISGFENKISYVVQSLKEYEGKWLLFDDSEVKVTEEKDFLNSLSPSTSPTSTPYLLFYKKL
Sequence of USP1/UAF1 enzyme (Q8TAF3 whole entry partner): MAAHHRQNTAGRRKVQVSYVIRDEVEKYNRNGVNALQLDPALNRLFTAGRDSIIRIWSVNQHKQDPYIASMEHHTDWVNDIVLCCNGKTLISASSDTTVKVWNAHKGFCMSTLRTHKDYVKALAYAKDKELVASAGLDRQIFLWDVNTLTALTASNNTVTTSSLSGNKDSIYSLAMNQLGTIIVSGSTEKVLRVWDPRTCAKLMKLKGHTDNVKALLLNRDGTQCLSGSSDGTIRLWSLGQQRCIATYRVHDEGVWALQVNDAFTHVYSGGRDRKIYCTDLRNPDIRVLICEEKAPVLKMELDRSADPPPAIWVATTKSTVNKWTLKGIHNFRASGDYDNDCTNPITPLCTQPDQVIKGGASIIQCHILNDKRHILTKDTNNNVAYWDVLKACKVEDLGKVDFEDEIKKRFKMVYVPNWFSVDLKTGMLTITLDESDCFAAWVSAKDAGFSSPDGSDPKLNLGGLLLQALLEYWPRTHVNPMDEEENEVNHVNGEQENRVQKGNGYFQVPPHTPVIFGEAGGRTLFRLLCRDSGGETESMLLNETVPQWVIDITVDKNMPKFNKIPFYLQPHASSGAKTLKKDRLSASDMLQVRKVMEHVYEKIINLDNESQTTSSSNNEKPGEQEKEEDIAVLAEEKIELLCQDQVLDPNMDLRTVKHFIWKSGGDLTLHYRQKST

As to `COc1ncnc(C2CC2)c1-c1nc2n(n1)CCC(=O)N2[C@H](C)c1ccc(-c2nc(C(F)(F)F)cn2C(C)C)cc1` [Example 189], the solubility at 24 h in data set [1] (setting [5]) and in data set [1] (setting [6]) was at least 10 µM throughout. In addition, the half-life at 1 μM in data set [2] and in data set [4] was above 25 min throughout. The IC50 on USP1/UAF1 enzyme is below 100 nM; in data set [3] (Homo sapiens, ES-2) it was below 100 nM.
`CCn1cc(C(F)(F)F)nc1-c1ccc([C@H](C)N2C(=O)CCn3nc(-c4c(OC)ncnc4C4CC4)nc32)cc1F` [Example 190]: the solubility at 24 h in data set [1] (setting [5]) and in data set [1] (setting [6]) was at least 10 µM each time. Also, the half-life at 1 μM in data set [2] and in data set [4] was above 25 min throughout. Moreover, the IC50 was below 100 nM on USP1/UAF1 enzyme and below 100 nM in data set [3] (Homo sapiens, ES-2).
Take `CCn1cc(C(F)(F)F)nc1-c1ccc([C@@H](C)N2C(=O)CCn3nc(-c4c(OC)ncnc4C4CC4)nc32)cc1F` [Example 191]: the solubility at 24 h in data set [1] (setting [5]) and in data set [1] (setting [6]) was below 10 µM each time. Further, the half-life at 1 μM in data set [2] is below 25 min; in data set [4], above 25 min. Also, the half-inhibitory concentration (IC50) at USP1/UAF1 enzyme is below 100 nM; in data set [3] (Homo sapiens, ES-2) it was below 100 nM.
With `CCn1cc(C(F)(F)F)nc1-c1ccc([C@H](C)N2C(=O)CCn3nc(-c4c(Cl)cnn4C(C)C)nc32)cc1` [Example 193], the solubility at 24 h in data set [1] (setting [5]) and in data set [1] (setting [6]) was below 10 µM throughout. Moreover, the half-life at 1 μM in data set [2] and in data set [4] was below 25 min in each case. Further, the IC50 on USP1/UAF1 enzyme was below 100 nM; in data set [3] (Homo sapiens, ES-2), below 100 nM.
Consider `CCn1cc(C(F)(F)F)nc1-c1ccc([C@@H](C)N2C(=O)CCn3nc(-c4c(Cl)cnn4C(C)C)nc32)cc1` [Example 194], for which the solubility at 24 h in data set [1] (setting [5]) and in data set [1] (setting [6]) was below 10 µM in each case. Moreover, the half-life at 1 μM in data set [2] and in data set [4] was below 25 min in each case. The IC50 was below 100 nM at USP1/UAF1 enzyme and below 100 nM in data set [3] (Homo sapiens, ES-2).
Consider `COc1ncnc(C2CC2)c1-c1nc2n(n1)CCC(=O)N2Cc1ccc(-c2nc(C(F)(F)F)cn2C(C)CF)cc1` (stereo not drawn) [Example 195], for which the solubility at 24 h in data set [1] (setting [5]) and in data set [1] (setting [6]) was at least 10 µM each time. Moreover, the half-life at 1 μM in data set [2] and in data set [4] was above 25 min throughout. The IC50 was 100 to 500 nM at USP1/UAF1 enzyme and below 100 nM in data set [3] (Homo sapiens, ES-2).
As for `COc1ncnc(C2CC2)c1-c1nc2n(n1)CCC(=O)N2[C@@H](C)c1ccc(-c2nc(C(F)(F)F)cn2C)c(F)c1` [Example 196], the solubility at 24 h in data set [1] (setting [5]) and in data set [1] (setting [6]) was at least 10 µM in each case. For the same compound, the figures for the half-life at 1 μM in data set [2] and in data set [4] were above 25 min and below 25 min, respectively. The IC50 at USP1/UAF1 enzyme is 100 to 500 nM; in data set [3] (Homo sapiens, ES-2), below 100 nM.
As to `COc1ncnc(C2CC2)c1-c1nc2n(n1)CCC(=O)N2[C@H](C)c1ccc(-c2nc(C(F)(F)F)cn2C)c(F)c1` [Example 197], the solubility at 24 h in data set [1] (setting [5]) and in data set [1] (setting [6]) was at least 10 µM each time. The half-life at 1 μM in data set [2] and in data set [4] was above 25 min throughout. The IC50 at USP1/UAF1 enzyme was below 100 nM; in data set [3] (Homo sapiens, ES-2) it was below 100 nM.
As to `COc1ncnc(C2CC2)c1-c1nc2n(n1)CCC(=O)N2[C@@H](C)c1ccc(-c2nc(C(F)(F)F)cn2C2CC2)cc1` [Example 200], the solubility at 24 h in data set [1] (setting [5]) and in data set [1] (setting [6]) was at least 10 µM throughout. The half-life at 1 μM in data set [2] and in data set [4] was above 25 min each time. Moreover, the IC50 was 100 to 500 nM on USP1/UAF1 enzyme and below 100 nM in data set [3] (Homo sapiens, ES-2).
In the case of `COc1ncnc(C2CC2)c1-c1nc2n(n1)CCC(=O)N2[C@H](C)c1ccc(-c2nc(C(F)(F)F)cn2C2CC2)cc1` [Example 201], the solubility at 24 h in data set [1] (setting [5]) and in data set [1] (setting [6]) was at least 10 µM throughout. In addition, the half-life at 1 μM in data set [2] and in data set [4] was above 25 min each time. The half-inhibitory concentration (IC50) at USP1/UAF1 enzyme is below 100 nM; in data set [3] (Homo sapiens, ES-2), below 100 nM.
Consider `COc1ncnc(C2CC2)c1-c1nc2n(n1)CCC(=O)N2[C@@H](C)c1ccc(-n2nc(C(F)(F)F)cc2C)c(F)c1` [Example 203], for which the solubility at 24 h in data set [1] (setting [5]) and in data set [1] (setting [6]) was at least 10 µM in each case. Besides, the half-life at 1 μM in data set [2] and in data set [4] was above 25 min each time. The IC50 on USP1/UAF1 enzyme was 100 to 500 nM; in data set [3] (Homo sapiens, ES-2), 100 to 500 nM.
Consider `COc1ncnc(C2CC2)c1-c1nc2n(n1)CCC(=O)N2[C@H](C)c1ccc(-n2nc(C(F)(F)F)cc2C)c(F)c1` [Example 204], for which the solubility at 24 h in data set [1] (setting [5]) and in data set [1] (setting [6]) was at least 10 µM throughout. For the same compound, the half-life at 1 μM in data set [2] and in data set [4] was above 25 min each time. The half-maximal inhibitory concentration (IC50) at USP1/UAF1 enzyme was below 100 nM; in data set [3] (Homo sapiens, ES-2), below 100 nM.
With `COc1ncnc(C2CC2)c1-c1nc2n(n1)CCC(=O)N2[C@H](C)c1ccc(-c2nc(C(F)(F)F)c(Br)n2C)cc1` [Example 206], the solubility at 24 h in data set [1] (setting [5]) is at least 10 µM; in data set [1] (setting [6]), below 10 µM. The half-life at 1 μM in data set [2] and in data set [4] was above 25 min throughout. Moreover, the IC50 is below 100 nM on USP1/UAF1 enzyme and below 100 nM in data set [3] (Homo sapiens, ES-2).
`COc1ncnc(C2CC2)c1-c1nc2n(n1)CCC(=O)N2Cc1ccc(-c2nc(C(F)(F)F)cn2C(C)C)c(F)c1OC` [Example 210]: the solubility at 24 h in data set [1] (setting [5]) and in data set [1] (setting [6]) was at least 10 µM each time. Besides, the half-life at 1 μM in data set [2] and in data set [4] was above 25 min each time. Also, the IC50 at USP1/UAF1 enzyme was below 100 nM; in data set [3] (Homo sapiens, ES-2) it was below 100 nM.
As for `CCn1cc(C(F)(F)F)nc1-c1ccc([C@H](C)N2C(=O)CCn3nc(-c4c(OC)ncnc4C4CC4)nc32)cc1Cl` [Example 211], the solubility at 24 h in data set [1] (setting [5]) is at least 10 µM; in data set [1] (setting [6]), below 10 µM. Further, the half-life at 1 μM in data set [2] was below 25 min; in data set [4], above 25 min. The IC50 on USP1/UAF1 enzyme was below 100 nM; in data set [3] (Homo sapiens, ES-2) it was below 100 nM.
For the compound `CCn1cc(C(F)(F)F)nc1-c1ccc([C@H](C)N2C(=O)CCn3nc(-c4c(OC)ncnc4C4CC4)nc32)cc1Cl` [Example 212], in data set [1] (PBS pH 2.0, 25° C., 24 hours), the “Solubility at pH 2.0 (μM)” value was “++ (“++” indicates 10 μM or greater)”. The “Solubility at pH 7.4 (μM)” value in data set [1] (PBS pH 7.4, 25° C., 24 hours) is “++ (“++” indicates 10 μM or greater)”. Also, in data set [2], the “t1/2 (min) in RLM” value is “++ (“++” indicates 25 minutes greater)”. For the same compound, the half-inhibitory concentration (IC50) (at USP1/UAF1 enzyme; in data set [3]) was below 100 nM throughout. Moreover, the “t1/2 (min) in HLM” value in data set [4] (human liver microsomes, 1 μM compound, 1 mg/mL microsomes, NADPH) is “++ (“++” indicates 25 minutes greater)”.
`COc1nccc(C2CC2)c1-c1nc2n(n1)CCC(=O)N2Cc1ccc(-c2nc(C(F)(F)F)cn2C(C)C)c(F)c1` [Example 213]: the solubility at 24 h in data set [1] (setting [5]) and in data set [1] (setting [6]) was below 10 µM each time. Moreover, the half-life at 1 μM in data set [2] and in data set [4] was above 25 min in each case. Also, the IC50 at USP1/UAF1 enzyme is below 100 nM; in data set [3] (Homo sapiens, ES-2), 100 to 500 nM.
`COc1c(CN2C(=O)CCn3nc(-c4c(Cl)cnn4C(C)C)nc32)ccc(-c2nc(C(F)(F)F)cn2C(C)C)c1F` [Example 216]: the solubility at 24 h in data set [1] (setting [5]) and in data set [1] (setting [6]) was below 10 µM each time. Moreover, the half-life at 1 μM in data set [2] and in data set [4] was above 25 min each time. The half-maximal inhibitory concentration (IC50) on USP1/UAF1 enzyme was below 100 nM; in data set [3] (Homo sapiens, ES-2) it was 100 to 500 nM.
As for `CCn1cc(C(F)(F)F)nc1-c1ccc(CN2C(=O)CCn3nc(-c4c(OC)ncnc4C4CC4)nc32)c(OC)c1F` [Example 217], the solubility at 24 h in data set [1] (setting [5]) and in data set [1] (setting [6]) was at least 10 µM throughout. For the same compound, the half-life at 1 μM in data set [2] and in data set [4] was above 25 min in each case. In addition, the IC50 was below 100 nM on USP1/UAF1 enzyme and below 100 nM in data set [3] (Homo sapiens, ES-2).
With `Cc1cnn(C(C)C)c1-c1nc2n(n1)CCCN2Cc1ccc(-c2nc(C(F)(F)F)cn2C)cc1` [Example 221, 2-(1-isopropyl-4-methyl-1H-pyrazol-5-yl)-4-(4-(1-methyl-4-(trifluoromethyl)-1H-imidazol-2-yl)benzyl)-4,5,6,7-tetrahydro-[1,2,4]triazolo[1,5-α]pyrimidine], the solubility at 24 h in data set [1] (setting [5]) and in data set [1] (setting [6]) was at least 10 µM each time. Besides, the half-life at 1 μM in data set [2] and in data set [4] was below 25 min each time. Also, the concentration for half-maximal inhibition (IC50) is below 100 nM on USP1/UAF1 enzyme and below 100 nM in data set [3] (Homo sapiens, ES-2).
